Experimental data published in paper doi:10.1101/2024.02.28.582502, “Magnesium Transporter MgtA revealed as a Dimeric P-type ATPase” (bioRxiv, 2024).

What was measured:
MgtA [1] = target: T1, MgtA (Escherichia coli, UniProt P0ABB8); assay: cryo-EM map density ([…] Å), ligand not modelled; details: 5 mM ADP, 5 mM MgCl2, pH 7.5, GDN, dimer, nucleotide binding site
T1 construct: full length, 898 aa, 100 kDa; pETDuet-1-MgtAS (co-expressed with MgtS, no MgtS density seen), E. coli C43(DE3); Ni-NTA and SEC in GDN; predominantly homodimer for cryo-EM, predominantly monomer in DDM for HDX-MS
T1 sequence (P0ABB8 1-898): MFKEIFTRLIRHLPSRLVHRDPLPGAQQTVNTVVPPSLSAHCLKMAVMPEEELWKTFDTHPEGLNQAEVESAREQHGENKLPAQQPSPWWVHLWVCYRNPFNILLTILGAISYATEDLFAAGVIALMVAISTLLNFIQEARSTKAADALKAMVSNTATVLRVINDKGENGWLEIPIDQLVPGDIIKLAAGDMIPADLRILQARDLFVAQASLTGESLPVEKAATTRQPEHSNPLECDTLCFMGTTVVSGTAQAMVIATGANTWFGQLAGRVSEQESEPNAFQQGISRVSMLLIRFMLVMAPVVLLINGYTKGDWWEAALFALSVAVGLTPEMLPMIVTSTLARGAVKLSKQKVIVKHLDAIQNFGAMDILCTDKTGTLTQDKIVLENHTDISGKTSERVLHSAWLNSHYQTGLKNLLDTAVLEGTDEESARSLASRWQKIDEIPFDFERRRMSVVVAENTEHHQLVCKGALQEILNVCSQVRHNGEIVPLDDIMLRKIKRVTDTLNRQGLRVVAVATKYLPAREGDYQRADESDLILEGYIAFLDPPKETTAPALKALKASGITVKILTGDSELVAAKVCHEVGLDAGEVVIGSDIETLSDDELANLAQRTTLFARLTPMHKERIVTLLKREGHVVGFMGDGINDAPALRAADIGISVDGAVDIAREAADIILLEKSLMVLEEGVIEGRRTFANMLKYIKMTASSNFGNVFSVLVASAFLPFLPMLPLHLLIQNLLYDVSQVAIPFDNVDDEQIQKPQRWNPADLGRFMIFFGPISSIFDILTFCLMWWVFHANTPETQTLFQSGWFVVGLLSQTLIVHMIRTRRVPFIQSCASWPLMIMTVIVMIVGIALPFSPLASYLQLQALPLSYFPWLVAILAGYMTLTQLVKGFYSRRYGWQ

MgtA [2] = target: T1, MgtA; assay: cryo-EM structure ([…] Å); HDX-MS; details: cryo-EM: 5 mM ATP, 5 mM MgCl2, pH 7.5, GDN, dimer, nucleotide binding site; HDX-MS: 5 mM ATP, 5 mM MgSO4, DDM, mainly monomer
MgtA [3] = target: T1, MgtA; assay: cryo-EM structure ([…] Å); HDX-MS; details: cryo-EM: 5 mM ATPγS, 5 mM MgCl2, pH 7.5, GDN, dimer, nucleotide binding site; HDX-MS: 5 mM ATPγS, 5 mM MgSO4, DDM, mainly monomer
[4] = target: the molecule itself; assay: cryo-EM structure; single-particle cryo-EM of GDN-purified MgtA, 5 mM MgCl2, 0.007% GDN; without nucleotide or with 5 mM ATP, ATPγS or ADP

For `Nc1ncnc2c1ncn2[C@@H]1O[C@H](COP(=O)(O)OP(=O)(O)O)[C@@H](O)[C@H]1O` [ADP], the “cryo-EM map density (3.75 Å), ligand not modelled” value (MgtA [1]) was “some ADP can enter the nucleotide binding pocket but cannot be bound as tightly”.

In the case of `Nc1ncnc2c1ncn2[C@@H]1O[C@H](COP(=O)(O)OP(=O)(O)OP(=O)(O)O)[C@@H](O)[C@H]1O` [ATP], the “cryo-EM structure (3.72 Å); HDX-MS” value (MgtA [2]) is reported as “Cryo-EM structures of the MgtA dimer bound to the ligands ATP, ATPgS, and ADP”.

In the case of `Nc1ncnc2c1ncn2[C@@H]1O[C@H](COP(=O)(O)OP(=O)(O)OP(O)(O)=S)[C@@H](O)[C@H]1O` [ATPγS], the “cryo-EM structure (3.87 Å); HDX-MS” value (MgtA [3]) is reported as “MgtA with ATPγS, though resolved at slightly lower resolution, was structurally similar to MgtA with ATP”.

B1: Escherichia coli magnesium transporter MgtA (from pETDuet-1-MgtAS, co-overexpressed with MgtS) (natural protein)
chain: T1 sequence (P0ABB8 1-898)
notes: MgtA, E. coli, P-type ATPase Mg2+ transporter, 100 kDa, 898 amino acids; residues from the N-terminal tail (1-36) on are modelled in the dimer structure; That the His tag stands on MgtA is inferred from its elution from Ni-NTA; also called EcMgtA; MgtAS (the purified sample); source: E. coli C43 (DE3), pETDuet-1-MgtAS, co-overexpressed with MgtS; membranes solubilised with 1% GDN (or DDM, LMNG); …
With B1 the “stoichiometry N” value [4] was 2.
